One block for each compound: values may come before it.
How the values were obtained:
Format in all cases: cell-based
hPPARδ/β = target: T1, hPPARδ/β (Homo sapiens, UniProt Q03181); experiment: GAL4-LBD UAS-luciferase reporter in HEK293
T1 construct: gene PPARD; GAL4-hPPARδ LBD fusion
T1 sequence (Q03181 171-441 limits assumed): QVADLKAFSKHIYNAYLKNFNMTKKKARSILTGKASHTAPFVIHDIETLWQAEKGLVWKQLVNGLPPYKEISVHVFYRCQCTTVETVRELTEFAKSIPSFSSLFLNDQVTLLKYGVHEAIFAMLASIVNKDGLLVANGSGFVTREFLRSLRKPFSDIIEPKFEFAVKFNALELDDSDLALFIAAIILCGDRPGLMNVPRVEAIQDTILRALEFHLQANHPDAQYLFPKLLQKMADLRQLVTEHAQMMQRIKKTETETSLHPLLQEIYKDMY

PPARγ = target: T2, PPARγ (Homo sapiens, UniProt P37231); experiment: antagonism of the human PPARγ LBD ligand-trap GFP reporter in transgenic zebrafish
T2 construct: gene PPARG; PPARγ (aa 189-477) LBD fusion
T2 sequence (P37231 217-505): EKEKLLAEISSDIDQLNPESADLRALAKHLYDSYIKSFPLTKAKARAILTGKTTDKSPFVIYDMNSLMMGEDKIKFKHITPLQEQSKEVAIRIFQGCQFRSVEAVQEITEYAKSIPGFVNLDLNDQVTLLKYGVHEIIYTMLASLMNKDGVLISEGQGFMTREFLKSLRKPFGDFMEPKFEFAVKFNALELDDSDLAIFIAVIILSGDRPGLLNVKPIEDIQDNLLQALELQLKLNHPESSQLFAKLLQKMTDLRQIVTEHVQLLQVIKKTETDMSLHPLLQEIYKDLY

PPARα = target: T3, PPARα (Homo sapiens, UniProt Q07869); experiment: co-purification with purified LBD and LC-MS; EC50 from GAL4-LBD luciferase reporter in HEK293
T3 construct: gene PPARA; His-tagged PPARα LBD
T3 sequence (Q07869 196-468 limits assumed): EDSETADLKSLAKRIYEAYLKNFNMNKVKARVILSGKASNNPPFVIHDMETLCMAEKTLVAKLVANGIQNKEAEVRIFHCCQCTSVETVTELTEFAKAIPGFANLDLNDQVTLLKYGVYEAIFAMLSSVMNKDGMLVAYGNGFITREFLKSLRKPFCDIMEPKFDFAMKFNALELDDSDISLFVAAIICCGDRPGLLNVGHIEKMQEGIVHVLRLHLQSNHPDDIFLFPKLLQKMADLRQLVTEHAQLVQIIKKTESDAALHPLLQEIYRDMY

SMILES: O=C(O)COc1ccc(SCC=C(c2ccc(Br)cc2)c2ccc(Br)cc2)cc1Cl [CAY10592]
EC50 (hPPARδ/β): 12.8 nM

SMILES: O=C(Nc1ccccc1)c1cc([N+](=O)[O-])ccc1Cl [GW9662]
antagonism of the human PPARγ LBD ligand-trap GFP reporter in transgenic zebrafi (PPARγ): The GW9662 suicide antagonist blocks agonist activity of rosiglitazone and idebenone, but not of RA

EC50 (PPARα): 2500 nM
SMILES: COC1=C(OC)C(=O)C(CCCCCCCCCCO)=C(C)C1=O [idebenone]
